Results reported in patent publication EP0612321B1, “PYRIDO PYRIDAZINONE AND PYRIDAZINTHIONE COMPOUNDS WITH PDE IV INHIBITING ACTIVITY” (SYNTEX (U.S.A.) INC., priority 1991, dated 1993).

Legend:
[1] = system: Human PBL; experiment: Mitogenic response of human peripheral blood lymphocytes to concanavalin A (3H-thymidine uptake); format: cell-based; details: Lymphocyte, concanavalin A 2 µg/ml, 48 hours, read-out: % Suppression
Method: This procedure is a modification of a procedure initially described by Greaves, et al. ["Activation of human T and B lymphocytes by polyclonal mitogens," Nature, 248, 698-701 (1974)].
Human mononuclear cells (PBL) are separated from heparinized whole blood by density gradient centrifugation in Ficoll-Paque (Pharmacia). After washing, 5 x 10^4 cells/well are cultured in microtiter plates with minimal essential media supplemented with 1% human serum, gentamicin, sodium bicarbonate, 2-mercaptoethanol, glutamine, non-essential amino acids, and sodium pyruvate. The mitogen concanavalin A (Sigma) is used at a concentration of 2 µg/ml. Test materials are tested at concentrations between 10^-4 and 10^-10 M, by addition to the culture at time 0. Cultures are set up in quadruplicate and incubated at 37°C in a humidified atmosphere with 5% CO2 for 48 hours. A pulse of 1.0 µCi/well of ^3H-thymidine is added for the last 4 hours. Cells are collected on glass fiber filters with an automatic harvester and radioactivity is measured by standard scintillation procedures. The 50% inhibitory concentration ("IC50") for mitogenic stimulation is determined graphically. The compounds of the present invention show immunosuppressive activity when tested by this method.
The % suppression represents test well counts minus background (wells with no concanavalin A) divided by control well counts (wells with no compound) minus background times 100.

[2] = system: plaque-forming cells (PFC); experiment: Hemolytic Plaque Forming Cell (PFC) Assay, immunosuppressive activity; format: in vivo, C3H female mice; details: Mus musculus, 96 h; oral dosage form; mice sensitized with SRBC; spleens taken four days after SRBC inoculation; read-out: ED50 (Immune PFC)
Excerpt: This procedure is a modification of "The agar plaque technique for recognizing antibody producing cells," a procedure initially described by Jerne, et al. [Cell-bound Antibodies, Amos and Kaprowski editors (Wistar Institute Press, Philadelphia, 1963) p. 109].
Groups of 5-6 adult C3H female mice were sensitized with 1.25 x 10^8 sheep red blood cells (SRBC) and simultaneously treated with an oral dosage form of the test material in an aqueous vehicle. Animals in a control group receive the same volume of vehicle. Four days after SRBC inoculation, spleens are dispersed in glass homogenizers. The number of nucleated cells (WBC) is determined and the spleen cell suspension is mixed with SRBC, guinea pig complement and agar solution at 0.5% concentration. Aliquots of the above mixture (0.1 ml) are dropped on four separate quadrants of a Petri dish and are covered with cover slips. After two hours incubation at 37°C, areas of hemolysis around plaque-forming cells (PFC) are counted with a dissecting microscope. Total WBC/spleen, PFC/spleen and PFC/10^6 WBC (PPM) are calculated for each mouse spleen. Geometric means of each treatment group are then compared with the vehicle-treated control group.

[3] = molecular target: Human Lymphocyte PDE IV; experiment: Human Lymphocyte cAMP Phosphodiesterase Assay (inhibition of PDE IV); format: biochemical; details: Inhibition of Human Lymphocyte PDE IV (human B cell line 43D supernatant)
Method: Human B cell line (43D) was cultured at 37°C in 7% CO2 in RPMI 1640 with L-glutamine and 10% Nu-Serum. Prior to the assay ∼1.5x10^8 cells were centrifuged at 1000 rpm for 10 minutes in a table top clinical centrifuge. The pellet was resuspended in 2-3 ml of 45 mM Tris-HCl buffer, pH 7.4. The suspension was homogenized and centrifuged at 12,000 x g 4°C for 10 minutes. The supernatant was diluted to 28 ml with Tris-HCl buffer and used directly in the assay or stored at -20°C. The final concentration of DMSO in the PDE incubation medium was 1%. Nitraquazone was included in each assay (10 and 100µM) as a reference standard.
The phosphodiesterase incubation medium contained 10 mM Tris-HCl buffer, pH 7.7, 10 mM MgSO4, 0.1-1µM […] (0.2 µCi) in a total volume of 1.0 ml. Following addition of the enzyme, the contents were mixed and incubated for 10 min at 30°C. The reaction was terminated by immersing the tubes in a boiling-water bath for 90 sec. After the tubes were cooled in an ice-water bath, 0.1 ml (100µg) of 5'-nucleotidase from snake venom (Crotalus atrox, Sigma V-7000) was added to each tube. The contents were mixed and incubated for 30 min at 30°C. The nucleotidase reaction was terminated by immersing the tubes in a boiling water bath for 60 sec. […]

[4] = system: Arachidonic Acid-Induced Ear Edema (AAEE); experiment: Arachidonic Acid-Induced Ear Edema (AAEE) in the mouse, anti-inflammatory activity; format: in vivo, Female Charles River ICR mice; details: 1 h, ear plug weight one hour after arachidonic acid challenge
Method: This procedure is a modification of a procedure described by Young et al., J. Invest. Derm., 82:367-371 (1984).
Female Charles River ICR mice 23-27 grams are administered 0.2 ml of test material. The mice are later challenged with 20 µl of arachidonic acid applied topically to the ear. One hour after challenge, the weight of an 8 mm disc is determined. The mean increase in ear plug weight is calculated. Materials with anti-inflammatory activity inhibit the increase in ear plug weight.

[5] = system: mice; experiment: Toxicology, 2 weeks dosing in mice; format: in vivo; details: 3 to 25 mg/kg/day

Row | Structure (SMILES) | inhibition at 0.1 µM [1] [%] | inhibition at 1 µM [1] [%] | inhibition at 10 µM [1] [%] | inhibition at 100 µM [1] [%] | ED50 [2] [mg/kg] | IC50 [3] [nM] | ED50 [4] [mg/kg] | CONCLUSION (mortality) [5]
1 | O=c1c2cccnc2c(-c2cccc([N+](=O)[O-])c2)nn1Cc1ccncc1 [Compound I, 6-(4-pyridylmethyl)-8-(3-nitrophenyl)pyrido[2,3-d]pyridazin-5-one] | 83 | 80 | 85 | 100 | 1 | 0.23 | 0.003 | no mortality occurred at any of the dose levels tested.
2 | O=c1c2cccnc2c(-c2cccc(Cl)c2)nn1Cc1ccncc1 [Compound II, 6-(4-pyridylmethyl)-8-(3-chlorophenyl)pyrido[2,3-d]pyridazin-5-one] | 74 | 83 | 87 | 100 | 3 | 1 | 0.009 | no mortality occurred at any of the dose levels tested.
